Data on one compound can be found in publication PMC9516243, “Design of stapled peptide-based PROTACs for MDM2/MDMX atypical degradation and tumor suppression” (Theranostics, 2022).

SMILES strings stand for the structures. Positions of bridges follow the written chain, without caps; N, C: chain ends. Non-standard residues stand in square brackets, D forms with d. Residues, ends and D or L forms follow the SMILES beside them. Hyp = O=C(O)[C@@H]1C[C@@H](O)CN1; R8 = C=CCCCCCC[C@@](C)(N)C(=O)O; hLeu = CC(C)CC[C@H](N)C(=O)O; S5 = C=CCCC[C@](C)(N)C(=O)O; AEA = NCCOCC(=O)O

The nature of one data set: circular dichroism. Conditions: phosphate buffer (PB); pH 7.2; 20 °C; 10-50 uM.
For another data set, the system named is α-Chymotrypsin. The experiment in a line: Proteolytic stability against chymotrypsin. Particulars: chymotrypsin 5 ng/μl (10 μl) added to 1 ml of 1 mM peptide, PBS 50 mM pH 7.4, 2 mM CaCl2, 25°C, HPLC, 90 min, read-out: intact peptide still observed after proteolytic digestion for 90 min. It counts as in vitro ADME. How it is done: Peptides were dissolved in PBS (50 mM, pH = 7.4) to a final concentration of 1 mM. α-Chymotrypsin was dissolved in PBS (50 mM, containing 2 mM of CaCl2, pH = 7.4) to a final concentration of 5 ng/μl. Then the peptide solutions (1 ml) were incubated with […] (10 μl) at 25°C. Samples were taken at 0, 5, 30, 60, 90, and 120 min and reactions were quenched with 20 μL of hydrochloric acid (1 M). The solution of the trypsin peptide fragments was monitored by HPLC at different time points to determine the fraction of protease degradation.

For the next data set, the target named is T1, ^24-108MDMX (Homo sapiens, UniProt O15151).
T1 construct: ^24-108MDMX, and a fluorescently tagged p53-derived peptide
T1 sequence (O15151 24-108): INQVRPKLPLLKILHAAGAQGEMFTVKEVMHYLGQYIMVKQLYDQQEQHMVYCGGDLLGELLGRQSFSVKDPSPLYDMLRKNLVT
The experiment in a line: FP-based competitive binding assay. Particulars: MDMX 40 nM, fluorescently tagged p53 peptide 20 nM, PBS pH 7.4, 30 min room temperature; mean of three independent measurements. How it is done: (§1) An FP-based competitive or binding assay was established using ^25-109MDM2, ^24-108MDMX, and a fluorescently tagged p53-derived peptide as previously described. [34]-[36] For dose-dependent competitive binding experiments, MDM2 or MDMX protein (40 nM) was first incubated with TAMRA-p53 peptide (20 nM) in PBS (pH 7.4) on a Costar 96-well plate, to which a serially diluted solution of test peptide was added to a final volume of 125 μL. After 30 min of incubation at room temperature, the FP values were measured at λex = 530 nm and λem = 580 nm on a Tecan Infinite M1000 plate reader. For binding experiments, FITC-labeled SPMI-HIF2-1 (20 nM) was incubated with different concentrations of MDM2, MDMX, and VHL proteins. Curve fitting was performed using GraphPad Prism software, and Ki values were calculated as described previously. Three replicates and three independent experiments were performed.

Another data set has as its target T2, ^25-109MDM2 (Homo sapiens, UniProt Q00987).
T2 construct: established using ^25-109MDM2, ^24-108MDMX
The experiment in a line: FP-based competitive binding assay. Conditions: MDM2 40 nM, fluorescently tagged p53 peptide 20 nM, PBS pH 7.4, 30 min room temperature; mean of three independent measurements. How it is done:
as §1

The test system of another data set is HCT116 p53^-/- cells. The experiment in a line: Cell viability assay (CCK-8). Particulars: CCK-8, 72 h incubation, absorbance 450 nm; read-out: IC50 (μM) HCT116 p53^-/-. The class given is cell-based, human. The method, then:
(§2) The human colon carcinoma cell line HCT116 p53^+/+ was obtained from the Cell Bank of the Chinese Academy of Sciences (Shanghai, China). HCT116 p53^-/- cells were generously provided by Prof. Vogelstein of Johns Hopkins University. Both cell lines were cultured in McCoy's 5A medium (Gibco, USA) containing 10% FBS, 100 units/ml penicillin, and 100 μg/ml streptomycin at 37 °C in a humidified incubator containing 5% CO2. Cell viability was measured using a Cell Counting Kit-8 (CCK-8) (Dojindo, Kumamoto, Japan) according to the manufacturer's instructions. In brief, the cells (5 × 10^3 cells/well in […] medium) were cultured for 24 h in 96-well microplates in a humidified 5% CO2 incubator at 37 °C and then treated with varying concentrations of compounds or 0.1% DMSO vehicle control.

The next data set deals with HCT116 p53^+/+ cells. The experiment in a line: Cell viability assay (CCK-8). It counts as cell-based, human. How it is done: as §2
Data set [1] has as its system HCT-116 subcutaneous xenograft. The experiment in a line: Subcutaneous HCT-116 xenograft model. The class given is in vivo, BALB/c nude mice. How it is done: (§3) Four-week-old male BALB/c nude mice (15-20 g) were used to establish subcutaneous and orthotopic xenograft models. A total of 5 × 10^6 HCT-116 cells were subcutaneously inoculated into the right flanks of the mice. Tumor volume was calculated using the following formula: V = (L × W^2)/2, where L is the length and W is the width of the tumor nodules measured with a vernier caliper. […] Drugs were intravenously injected into the mice every 2 days for 2 weeks. In addition, the model of orthotopic CRC xenografts was established. Briefly, mice were anesthetized after fasting for 12 h. Subsequently, the distal anal and rectal mucosa were exposed, and transanal injection of HCT-116 cells (5 × 10^6) was performed using a 30 G sterile needle. The injection was given directly into the rectal mucosa. Tumor growth was investigated, and once the tumors reached ~0.5 cm in size, the mice were randomly divided into two groups. The mice were treated every other day for 2 weeks with tail vein injections of either vehicle (saline) or sPMI-HIF2-1 (2 mg/kg). Body weight was measured before saline or drug injection. All mice were euthanized on day 14 following drug treatment, and the tumors were isolated, photographed, weighed, and measured.

Data set [2] in a line: α-Helicity by CD spectroscopy. The class given is physicochemical. Particulars: PB pH 7.2, 10-50 µM peptide, 20°C, calculated from [θ]222. The method, then:
Peptides were dissolved in PB (pH = 7.2) to concentrations ranging from 10 to 50 µM. CD spectra were obtained on a Jasco J-715 spectropolarimeter at 20°C. The spectra were collected using a 0.1 cm path length quartz cuvette with the following measurement parameters: wavelength, 185-255 nm; step resolution, 0.1 nm; speed, 20 nm/min; accumulations, 6; bandwidth, 1 nm. The helical content of each peptide was calculated as reported previously.

Data set [3] has as its system HCT-116 orthotopic (rectal mucosa) xenograft. The experiment in a line: Orthotopic CRC xenograft model. The class given is in vivo, BALB/c nude mice. The method, then:
as §3

The mark [4] stands for this setting: 10 mg/kg i.v. tail vein every other day for 2 weeks, tumor volume.

In the data set “circular dichroism”, `CC(=O)N[C@H](C(=O)N[C@@H](CO)C(=O)N[C@@H](Cc1ccccc1)C(=O)N[C@]1(C)CCCCCCC=CCCC[C@@](C)(C(=O)NCCOCC(=O)N[C@@H](CC(C)C)C(=O)N[C@@H](C)C(=O)N2C[C@H](O)C[C@H]2C(=O)N[C@@H](Cc2ccc(O)cc2)C(=O)N[C@@H](CCC(C)C)C(=O)N2CCC[C@H]2C(N)=O)NC(=O)[C@H](CC(C)C)NC(=O)[C@H](CC(C)C)NC(=O)[C@H](C)NC(=O)[C@H](Cc2c[nH]c3ccccc23)NC(=O)[C@H](Cc2ccc(O)cc2)NC(=O)[C@H](CCC(=O)O)NC1=O)[C@@H](C)O` [SPMI-HIF2-1] (Ac-TSF[R8]EYWALL[S5][AEA]LA[Hyp]Y[hLeu]P-NH2; staple 4-11) displayed a helicity of 37%. The remaining at 1.5 h, 1 mM in the data set with α-Chymotrypsin was greater than 60%. Further, the Ki (in general, a measure of affinity in units of concentration, obtained from inhibition or displacement) on ^24-108MDMX was determined as 530 nM; at ^25-109MDM2 it was 350 nM. Further, the IC50 in the data set with HCT116 p53^-/- cells is greater than 100 µM; in the data set with HCT116 p53^+/+ cells (CCK-8, 72 h incubation, absorbance 450 nm, read-out: IC50 (μM) HCT116 p53^+/+), 6.7 µM. Moreover, in the data set with HCT116 p53^+/+ cells (CCK-8, 72 h), the “enhancement of IC50 against HCT116 p53^+/+ compared with SPMI2” value was roughly 5 fold. In addition, the body weight entry is reported as “no obvious changes in body weight” in [1] (10 mg/kg i.v. every other day for 2 weeks) and “no obvious change in body weight” in [3] (2 mg/kg i.v. every 2 days until the 13th day, compared to saline-treated controls). Also, the “inhibition of tumor growth, enhanced compared to the 50 mg/kg PMI-HIF1-1 group” value in [1] (setting [4]) was found to be 3 fold. In [1] (setting [4]), the “inhibition of tumor growth, enhanced compared to the control group” value amounted to 5 fold. Besides, the “α-helicity (%)” value in [2] is 37%. In data set [3] (2 mg/kg i.v. tail vein every 2 days until the 13th day, n = 5 mice/group), the “reduction in tumor weight compared to the control group” value worked out at 77%.
